# Source: article PMC7970304, “The Effects of Apelin and Elabela Ligands on Apelin Receptor Distinct Signaling Profiles” (Frontiers in Pharmacology, 2021)
# Tests used:
# [1] = molecular target: T1, APJ (Apelin receptor) (Homo sapiens, UniProt P35414); assay: Radioligand competition binding assay, [125I]-apelin-13, HEK-293/APJ membranes; design: APJ membrane preparations were obtained from transiently transfected HEK293 cells; host or cells: HEK293 cells, transiently transfected; membranes prepared; details: [125I]-apelin-13 competition
# T1 sequence (P35414 1-380): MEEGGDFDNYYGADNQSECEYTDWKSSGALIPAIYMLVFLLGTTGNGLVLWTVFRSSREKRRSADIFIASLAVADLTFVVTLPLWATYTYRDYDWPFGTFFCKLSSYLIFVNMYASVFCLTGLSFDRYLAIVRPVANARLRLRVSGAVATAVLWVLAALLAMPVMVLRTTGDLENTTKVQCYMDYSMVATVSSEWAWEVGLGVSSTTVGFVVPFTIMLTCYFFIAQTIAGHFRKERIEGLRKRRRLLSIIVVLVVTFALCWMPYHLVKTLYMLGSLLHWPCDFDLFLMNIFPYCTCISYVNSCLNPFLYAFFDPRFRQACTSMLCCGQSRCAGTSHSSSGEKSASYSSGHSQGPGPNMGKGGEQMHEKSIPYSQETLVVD
# Protocol: APJ membrane preparations were obtained from transiently transfected HEK293 cells. HEK293 cells were cultured in complete DMEM (DMEM plus 10% FBS) for 24 h, until they reached at least 70% confluence. Transfection reagent containing 20 μg of the APJ expression plasmid was added, and the cells were incubated for another 24 h. The cells were then harvested into 25 ml homogenization buffer (HB) [250 mM sucrose and 25 mM HEPES (pH 7.3); adjusted to pH 7.5 at 4°C and then filtered] supplemented with 250 μL phenylmethylsulfonyl fluoride (PMSF), homogenized using an IKA T25 Ultra Turrax (24,000 rpm), and centrifuged at 6,025 rpm for 15 min at 4°C. […]
# The binding reaction was stopped by rapid filtration through polyethyleneimine (PEI)-coated GF/B plates using a cell harvester, and the plates were washed three times with ice-cold wash buffer [50 mM HEPES (pH 7.4), 500 mM NaCl, and 0.1% BSA; filtered and stored at 4°C]. The filtration plates were dried at 37°C for 2 h; 50 μL scintillation cocktail (Perkin Elmer, Wellesley, MA, United States), was added to each well; and the radioactivity was measured using a Perkin Elmer 1450 MicroBeta TriLux Microplate Scintillation and Luminescence Counter.
# The binding reaction was stopped, the plates were washed and dried, the scintillation cocktail was added, and the radioactivity was measured as described above.
# [2] = tested on: APJ–GRK2 interaction; assay: BRET recruitment of GRK2 to APJ; format: cell-based; details: for log (τ/KA) / Δlog (τ/KA): APJ-GRK2; for log (τ/KA): Black–Leff operational model; for Δlog (τ/KA): relative to Apelin-13; for Bias factor / Log (Bias): APJ-GRK2 over Ca2+, reference Apelin-13; for Log (Bias): footnote a = statistically insignificant
# Protocol: (§1) To detect the potencies of different peptide ligands for APJ in living cells, real-time kinetic bioluminescence resonance energy transfer (BRET) assays were carried out as follows. HEK293 cells were grown to 80–90% confluence in 24-well plates and transiently transfected with various Rluc-, EYFP-, or Venus-tagged constructs ([Chen et al., 2014]; [Liu et al., 2016]). Approximately 36 h after transfection, the long-acting luciferase substrate EnduRen (E6481, Promega, Beijing Biotech Co., Ltd.) was added to each well at a final concentration of 60 μM and cells were incubated for 2 h at 37°C in a 5% CO2 incubator. BRET experiments were carried out using a Mithras LB941 plate reader (Berthold Technologies, Bad Wildbad, Germany) with three filters: a Rluc filter (400–475 nm), a Venus filter (515–575 nm) and an EGFP filter (500–550 nm) ([Liu et al., 2016]; [Ji et al., 2017]). The BRET ratio was calculated as the ratio of the emission at 535 ± 30 nm to that at 485 ± 20 nm. The results are expressed as the mBRET (mBRET = 1,000 × BRET ratio) ([Pfleger et al., 2006a]; [Pfleger et al., 2006b]). We use high glucose as a negative control group.
# (§2) HEK293 cells were transiently co-transfected with the designated Rluc and GFP2 or Venus or EYFP-labeled constructs. Twenty-four hours after transfection, the cells were harvested in phenol red free medium containing 5% FCS in HEPES buffer and seeded in 96 well white microplate coated with poly-D-lysine. After 24 h, cells were washed twice in PBS and re-suspended in PBS containing 0.5 mM MgCl2 and 0.1% glucose. Coelenterazine h substrate was added at a final concentration of 5 μM in the total volume of 50 μL/well. Kinetic-response and dose-response curve of the recruitment of GRKs or β-arrestin 1 and β-arrestin 2 or AP2 to the APJ by six peptides measured by BRET. […] The BRET signals between receptor and GRKs/β-arrestin1 and 2/AP2 were recorded at 10 min (GRK2/5) or 15 min (β-arrestin1 and) or 30 min (AP2) after agonist stimulation. We use high glucose as a control group. BRET assays were performed as described previously ([Xue et al., 2018]). […] This signal is defined as the ligand induced BRET ratio.
# (§3) The concentration-response data for the ligands in various assays were analyzed to determine the biases of the ligands for G protein dependent signaling or β-arrestin dependent signaling, according to a previously published method ([Kenakin et al., 2012]; [Hager et al., 2016]; [Hothersall et al., 2017]). Briefly, the concentration-response data for each ligand were fitted to the Black–Leff operation model to obtain the values of τ and K A, using the following equation: Response=[A]^nτ^nEm/[A]^nτ^n+([A]KA)^n where [A] is the concentration of the agonist, E m is the maximal response of the system, n is the transducer slope, and K A and τ describe the affinity and efficacy of the agonist, respectively. In the data fitting, the reparametrized form of the equation proposed by [Kenakin et al. (2012)] was used: Response=Em/1+exp{nln[1+exp(β1)/[A]]−nβ2} where β 1 and β 2 are the natural logarithm of K A and τ, respectively, and E m was set to 1. Thus, for each concentration-response curve, a non-linear regression was performed to fit the above equation to give β 1 and β 2 (as well as n). Log (τ/K A) values (“transduction coefficients”) for each ligand vs. each pathway were obtained. […] The ΔΔlog (τ/K A), or Log (Bias), which is the logarithm of the bias factor for a given pathway over a reference pathway (here, intracellular calcium release), was calculated for each ligand as Δlog (τ/K A)–Δlog (τ/K A)Calcium. The 95% confidence interval (CI) was expressed as the mean ± standard error; Log (Bias) values, whose 95% CI crosses 0, were considered statistically insignificant.
# (§4) The data were analyzed using GraphPad Prism v5.0. All the data are presented as the mean ± SEM.
# [3] = tested on: APJ–β-arrestin 1 interaction; assay: BRET recruitment of β-arrestin 1 to APJ; format: cell-based; details: for log (τ/KA) / Δlog (τ/KA): APJ-β-arrestin1; for log (τ/KA): Black–Leff operational model; for Δlog (τ/KA): relative to Apelin-13; for Bias factor / Log (Bias): APJ-β-arrestin1 over Ca2+, reference Apelin-13
# Protocol: as §1, §2, §3, §4
# [4] = tested on: β-arrestin 1–AP2 interaction induced by APJ; assay: BRET interaction of β-arrestin 1 and β2-adaptin (AP2) induced by APJ; format: cell-based; details: for log (τ/KA) / Δlog (τ/KA): APJ-β-arrestin1-AP2; for log (τ/KA): Black–Leff operational model; for Δlog (τ/KA): relative to Apelin-13; for Bias factor / Log (Bias): APJ-β-arrestin1-AP2 over Ca2+, reference Apelin-13; for Log (Bias): footnote a = statistically insignificant
# Protocol: as §1, §2, §3, §4
# [5] = tested on: APJ–β-arrestin 2 interaction; assay: BRET recruitment of β-arrestin 2 to APJ; format: cell-based; details: for log (τ/KA): Black–Leff operational model; for Bias factor / Log (Bias): APJ-β-arrestin 2 over Ca2+, reference Apelin-13; for Log (Bias): footnote a = statistically insignificant
# Protocol: as §1, §2, §3, §4
Structure (SMILES),log (τ/KA) [2],Δlog (τ/KA) [2],Bias factor [2],Log (Bias) [2],log (τ/KA) [3],Δlog (τ/KA) [3],Bias factor [3],Log (Bias) [3],log (τ/KA) [4],Δlog (τ/KA) [4],Bias factor [4],Log (Bias) [4],log (τ/KA) ([5]; APJ-β-arrestin 2),Bias factor [5],Log (Bias) [5],other results
CSCC[C@H](NC(=O)[C@@H]1CSSC[C@H](NC(=O)[C@H](CC(N)=O)NC(=O)[C@H](Cc2c[nH]cn2)NC(=O)[C@H](CCCCN)NC(=O)[C@H](CCCNC(=N)N)NC(=O)[C@@H](N)CC(C)C)C(=O)N[C@@H](CC(C)C)C(=O)N[C@@H](CCC(N)=O)C(=O)N[C@@H](CCCNC(=N)N)C(=O)N[C@@H](CCCNC(=N)N)C(=O)N1)C(=O)N1CCC[C@H]1C(=O)N[C@@H](CC(C)C)C(=O)N[C@@H](Cc1c[nH]cn1)C(=O)N[C@@H](CO)C(=O)N[C@@H](CCCNC(=N)N)C(=O)N[C@H](C(=O)N1CCC[C@H]1C(=O)N[C@@H](Cc1ccccc1)C(=O)N1CCC[C@H]1C(=O)O)C(C)C [Elabela-21],−1.5 ± 0.2,0.6 ± 0.3,169.0,2.2 ± 0.4,−1.9 ± 0.1,0.6 ± 0.1,146.2,2.2 ± 0.2,−1.9 ± 0.1,−0.5 ± 0.2,13.2,1.1 ± 0.3,−2.1 ± 0.1,73.6,1.9 ± 0.2,"binding affinity (in words) [1]: slightly weaker binding affinity than Elabela-32; Δlog (τ/KA) ([5]; APJ-β-arrestin 2, relative to Apelin-13): 0.3 ± 0.1"
CSCC[C@H](NC(=O)[C@@H](NC(=O)[C@H](CC(C)C)NC(=O)[C@H](CC(N)=O)NC(=O)[C@@H](NC(=O)[C@@H]1CCCN1C(=O)[C@H](CCCNC(=N)N)NC(=O)[C@@H](N)CCC(N)=O)C(C)C)[C@@H](C)O)C(=O)N[C@@H](CCCNC(=N)N)C(=O)N[C@@H](CCCNC(=N)N)C(=O)N[C@@H](CCCCN)C(=O)N[C@@H](CC(C)C)C(=O)N[C@@H](CCCNC(=N)N)C(=O)N[C@@H](CCCCN)C(=O)N[C@@H](Cc1c[nH]cn1)C(=O)N[C@@H](CC(N)=O)C(=O)N[C@H]1CSSC[C@@H](C(=O)N[C@@H](CCSC)C(=O)N2CCC[C@H]2C(=O)N[C@@H](CC(C)C)C(=O)N[C@@H](Cc2c[nH]cn2)C(=O)N[C@@H](CO)C(=O)N[C@@H](CCCNC(=N)N)C(=O)N[C@H](C(=O)N2CCC[C@H]2C(=O)N[C@@H](Cc2ccccc2)C(=O)N2CCC[C@H]2C(=O)O)C(C)C)NC(=O)[C@H](CCCNC(=N)N)NC(=O)[C@H](CCCNC(=N)N)NC(=O)[C@H](CCC(N)=O)NC(=O)[C@H](CC(C)C)NC1=O [Elabela-32],−0.8 ± 0.2,1.3 ± 0.3,"1,604.0",3.2,−1.0 ± 0.1,1.4 ± 0.1,1978.4,3.3,−0.1 ± 0.1,1.3 ± 0.2,"1,580.1",3.2,−0.4 ± 0.1,"6,138.2",3.8,"Log (Bias) ([2]; listed as ELA-32): 3.2 ± 0.4; bias over calcium release ([2]; APJ–GRK2): > 1,500 fold; Log (Bias) ([3]; listed as ELA-32): 3.3 ± 0.2; bias over calcium release ([3]; APJ–β-arrestin 1): > 1,500 fold; APJ–β-arrestin 1 BRET signal (in words) ([3]; dose-response, 15 min): significantly higher than those induced by the other peptide ligands; Log (Bias) ([4]; listed as ELA-32): 3.2 ± 0.3; bias over calcium release ([4]; β-arrestin 1–AP2): > 1,500 fold; Log (Bias) ([5]; listed as ELA-32): 3.8 ± 0.2; bias over calcium release ([5]; APJ–β-arrestin 2): > 6,000 fold"
